From patent US7851637B2, “Compounds and methods for inhibiting the interaction of BCL proteins with binding partners” (Infinity Pharmaceuticals, Inc., priority 2004, dated 2010)
Read-outs that look alike come from different tables or passages of the source.

Legend:
Bcl-2 = Bcl-2 (Homo sapiens, UniProt P10415); assay: Bcl-2 binding affinity analysis (fluorescence polarization binding assay)
Procedure, shortened: (§1)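 Compounds were tested in vitro for association with the purified target, with binding quantified from the change in fluorescence polarization.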

Bcl-xL = Bcl-xL (Homo sapiens, UniProt Q07817); assay: Bcl-xL binding affinity analysis (fluorescence polarization binding assay); set-up: scale not given here
Procedure, shortened: as §1

[1] = system: Human Pancreatic Cancer Cell Line Panc1; assay: Cell death assay (propidium iodide/Hoechst) in Panc1 cells with or without camptothecin; format: cell-based; settings: 72 hours, % cell death by propidium iodide/Hoechst
Description: When RL-cells are exposed to isoxazolidine compounds of the present invention, the inhibitors show a dose-dependent cell-killing in the Alamar blue cytoxicity assay with IC50 values of from about 100 μM to about 1 μM (See Examples). When Panc1 cells are exposed to the isoxazolidine compounds of the present invention in combination with camptothecin, the inhibitors show a synergistic dose-dependent cell killing in the propidium iodide exclusion cell survival assay with IC50 values of from about 100 μM to about 1 μM (See Examples).
• 1) Compounds were serially diluted in DMSO from a 9 mM stock to a final concentration of 0.004 mM in a 96 well plate. • 2) Assay plates were prepared by diluting compounds 310 fold into 150 ul of medium containing 10,000 cells/well, with or without 3 uM Camptothecin, resulting in a final DMSO concentration of 0.3% and a compound concentration range from 29 uM to […] for each compound. • 3) Assay plates were incubated at 37 C, 5% CO2 for 72 hours. • 4) After 72 hours, propidium iodide and Hoechst dye were added to each well according to manufacturer's instruction. • 5) Plates were imaged on a fluorescence microscope at wavelengths Ex560/Em650 (Propidium iodide) and Ex360/Em465 (Hoechst) • 6) MetaMorph imaging software was used to determine % cell death by dividing the number of propidium iodide stained cells (dead cells) by the number of Hoechst stained cells (all cells), multipled by 100, in each field.
Panc1 invitro cellular data is presented below for various compounds of the invention.

[2] = Homo sapiens, PANC-1, without camptothecin, read-out: Panc1 − Cpt IC50
[3] = with 3 uM Camptothecin, read-out: Panc1 + Cpt IC50

Bcl-2, sequence (P10415 whole entry): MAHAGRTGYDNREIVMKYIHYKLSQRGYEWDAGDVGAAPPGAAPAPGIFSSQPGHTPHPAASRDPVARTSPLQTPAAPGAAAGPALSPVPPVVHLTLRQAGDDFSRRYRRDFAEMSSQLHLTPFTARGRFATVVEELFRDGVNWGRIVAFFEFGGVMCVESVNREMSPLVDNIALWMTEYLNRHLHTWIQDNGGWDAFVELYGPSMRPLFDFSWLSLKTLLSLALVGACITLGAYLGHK
Bcl-xL, sequence (Q07817 whole entry): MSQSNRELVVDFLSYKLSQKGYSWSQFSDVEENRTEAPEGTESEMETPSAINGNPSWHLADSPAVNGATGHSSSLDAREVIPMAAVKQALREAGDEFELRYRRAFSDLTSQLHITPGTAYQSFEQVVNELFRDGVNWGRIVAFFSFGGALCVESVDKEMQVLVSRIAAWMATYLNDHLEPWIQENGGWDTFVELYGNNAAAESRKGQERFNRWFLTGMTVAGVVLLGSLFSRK

SMILES	Ki (Bcl-2) [µM]	Bcl-XL binding affinity Ki (Bcl-xL)	IC50 [1, 2] [µM]	IC50 [1, 3] [µM]
CC(C)C[C@@H](CN(C)C)N(Cc1cccc(CN2O[C@@H](CO)C([C@H](C)O)[C@H]2C(=O)N[C@H]2C[C@H]3C[C@@H]([C@@H]2C)C3(C)C)c1)Cc1c(Cl)cccc1Cl (stereo partly drawn) [Compound 317]	< 0.8	♯	> 2.5	> 2.5
CC(C)CC(CN(C)C)N(Cc1cccc(CN2OC(CO)C(C(C)O)C2C(=O)NC2CC3CC(C2C)C3(C)C)c1)Cc1c(F)cccc1Cl (stereo not drawn) [Compound 307]	< 0.8	♯	> 2.5	> 2.5
COc1cccc(F)c1CN(Cc1cccc(CN2OC(CO)C(C(C)O)C2C(=O)NC2CC3CC(C2C)C3(C)C)c1)C(CC(C)C)CN(C)C (stereo not drawn) [Compound 305]	< 0.8	♯	1.3 to 1.8	< 1.3
CC(C)[C@H](CN(C)C)NC(=O)c1cccc(-c2cccc(CN3O[C@@H](CO)[C@@H]([C@H](C)O)[C@H]3C(=O)N[C@H]3C[C@H]4C[C@@H]([C@@H]3C)C4(C)C)c2)c1 [Compound 103]	< 0.8	♯		
CSc1cccc(-c2cccc(CN3O[C@@H](CO)[C@@H]([C@H](C)O)[C@H]3C(=O)N[C@H]3C[C@H]4C[C@@H]([C@@H]3C)C4(C)C)c2)c1 [Compound 201]	< 0.8	♯		
C[C@H](O)[C@@H]1[C@H](CO)ON(Cc2cccc(-c3cccc(NS(C)(=O)=O)c3)c2)[C@@H]1C(=O)NC1C[C@H]2C[C@@H]([C@@H]1C)C2(C)C (stereo partly drawn) [Compound 181]	< 0.8	♯♯		
C[C@@H](O)[C@H]1[C@@H](CO)ON(Cc2cccc(C#CCCCCl)c2)[C@H]1C(=O)NCCCN(C)c1ccccc1 [Compound 44]	6 to 50	♯		
CC(C)=CCC/C(C)=C/CNC(=O)[C@H]1[C@@H]([C@@H](C)O)[C@@H](CO)ON1Cc1cccc(C#CC(C)(O)c2ccccc2)c1 (stereo partly drawn) [Compound 45]	6 to 50	♯		
C[C@@H]1[C@@H](NC(=O)[C@@H]2C([C@H](C)O)[C@H](CO)ON2Cc2ccc(C#CC3(N)CCCCC3)cc2)C[C@H]2C[C@@H]1C2(C)C (stereo partly drawn) [Compound 30]	0.8 to 6	♯♯		
C[C@@H]1[C@@H](NC(=O)[C@@H]2[C@H]([C@H](C)O)[C@H](CO)ON2Cc2cccc(-c3cccc(C(=O)N4CCN(C)CC4)c3)c2)C[C@H]2C[C@@H]1C2(C)C [Compound 129]	< 0.8	♯♯		
C[C@@H]1[C@@H](NC(=O)[C@@H]2[C@H]([C@H](C)O)[C@H](CO)ON2Cc2cccc(-c3ccc(NS(C)(=O)=O)cc3)c2)C[C@H]2C[C@@H]1C2(C)C [Compound 298]	< 0.8	♯♯		
CNC(=O)c1cccc(-c2cccc(CN3O[C@@H](CO)[C@@H]([C@H](C)O)[C@H]3C(=O)N[C@H]3C[C@H]4C[C@@H]([C@@H]3C)C4(C)C)c2)c1 [Compound 220]	< 0.8	♯		
C[C@@H]1[C@@H](NC(=O)[C@@H]2[C@H]([C@H](C)O)[C@H](CO)ON2Cc2cccc(-c3cccc(C(=O)NCCCN4CCCCC4)c3)c2)C[C@H]2C[C@@H]1C2(C)C [Compound 111]	< 0.8	♯		
CNC(=O)c1ccccc1-c1cccc(CN2O[C@@H](CO)[C@@H]([C@H](C)O)[C@H]2C(=O)N[C@H]2C[C@H]3C[C@@H]([C@@H]2C)C3(C)C)c1 [Compound 89]			1.8 to 2.5	1.3 to 1.8
C[C@@H]1[C@@H](NC(=O)[C@@H]2[C@H]([C@H](C)O)[C@H](CO)ON2Cc2cccc(C#CC3(NC(=O)C4CCN(C)CC4)CCCCC3)c2)CC2C[C@@H]1C2(C)C [Compound 90]			> 2.5	1.3 to 1.8
C[C@@H](O)[C@@H]1C(C(=O)NCCCN(C)c2ccc(Cl)cc2)N(Cc2cccc(C#CCNC(=O)c3ccccc3)c2)O[C@@H]1CO (stereo partly drawn) [Compound 62]	6 to 50	♯♯		
C[C@@H]1[C@@H](NC(=O)[C@@H]2[C@H]([C@H](C)O)[C@H](CO)ON2Cc2cccc(-c3cccc(C(=O)N4CCCN(C)CC4)c3)c2)C[C@H]2C[C@@H]1C2(C)C [Compound 125]	< 0.8	♯♯		
CC(C)CC(CN(C)C)NCc1cccc(CN2O[C@@H](CO)C([C@H](C)O)[C@H]2C(=O)NC2CC3CC([C@@H]2C)C3(C)C)c1 (stereo partly drawn) [Compound 223]	< 0.8	♯		

Second part, led by results:

Ki (Bcl-2) [µM]	Bcl-XL binding affinity Ki (Bcl-xL)	SMILES	IC50 [1, 2] [µM]	IC50 [1, 3] [µM]
< 0.8	♯	C[C@@H]1[C@@H](NC(=O)[C@@H]2C([C@H](C)O)[C@H](CO)ON2Cc2cccc(CN(CCN(C)C)Cc3ccncc3)c2)C[C@H]2C[C@@H]1C2(C)C (stereo partly drawn) [Compound 389]	1.8 to 2.5	1.3 to 1.8
< 0.8	♯	C[C@@H]1[C@@H](NC(=O)[C@@H]2C([C@H](C)O)[C@H](CO)ON2Cc2cccc(CN(Cc3ccccc3Br)[C@H](CN(C)C)C(C)(C)C)c2)C[C@H]2C[C@@H]1C2(C)C (stereo partly drawn) [Compound 422]	> 2.5	1.3 to 1.8
< 0.8	♯	COc1c(CN2O[C@@H](CO)[C@@H]([C@H](C)O)[C@H]2C(=O)N[C@H]2C[C@H]3C[C@@H]([C@@H]2C)C3(C)C)cccc1-c1cccc(C(=O)N[C@H](CC2CCCCC2)CN(C)C)c1 [Compound 489]	> 2.5	1.8 to 2.5
< 0.8	♯	CC(O)C1C(CO)ON(Cc2cccc(CNC(CN(C)C)c3ccccc3)c2)C1C(=O)NC1CC2CC(C1C)C2(C)C (stereo not drawn) [Compound 452]	> 2.5	> 2.5
< 0.8	♯	CCN1CCCC1CN(Cc1ccccc1)Cc1cccc(CN2OC(CO)C(C(C)O)C2C(=O)NC2CC3CC(C2C)C3(C)C)c1 (stereo not drawn) [Compound 426]	> 2.5	> 2.5
< 0.8	♯	COc1cccc(CN(Cc2cccc(CN3OC(CO)C(C(C)O)C3C(=O)NC3CC4CC(C3C)C4(C)C)c2)C(CC(C)C)CN(C)C)c1 (stereo not drawn) [Compound 319]	1.8 to 2.5	1.3 to 1.8
< 0.8	♯	CC(O)C1C(CO)ON(Cc2cccc(CNC(CN(C)C)CC(C)(C)C)c2)C1C(=O)NC1CC2CC(C1C)C2(C)C (stereo not drawn) [Compound 455]	> 2.5	> 2.5
< 0.8	♯	CC(O)C1C(CO)ON(Cc2cccc(CNC(Cc3ccccc3)CN(C)C)c2)C1C(=O)NC1CC2CC(C1C)C2(C)C (stereo not drawn) [Compound 454]	> 2.5	> 2.5
< 0.8	♯	CC(O)C1C(CO)ON(Cc2cccc(CN(CCN3CCCC3)Cc3ccccc3)c2)C1C(=O)NC1CC2CC(C1C)C2(C)C (stereo not drawn) [Compound 430]	> 2.5	> 2.5
0.8 to 6	♯	C[C@@H]1[C@@H](NC(=O)[C@@H]2[C@H]([C@H](C)O)[C@H](CO)ON2CCCCN(CCN(C)C)Cc2ccccc2Cl)C[C@H]2C[C@@H]1C2(C)C [Compound 549]		
0.8 to 6	♯	CC(O)C1C(CO)ON(Cc2cccc(CN3CCN(C(=O)OCc4ccccc4)CC3)c2)C1C(=O)NC1CC2CC(C1C)C2(C)C (stereo not drawn) [Compound 458]		
0.8 to 6	♯	C[C@H](O)[C@@H]1[C@H](CO)ON(Cc2cccc(CN(CCN(C)C)Cc3ccccc3)c2)[C@@H]1C(=O)NCCc1cccc(-c2ccccc2)c1 [Compound 513]		
6 to 50	♯	C[C@H](O)[C@@H]1[C@H](CO)ON(Cc2cccc(CN(CCN(C)C)Cc3ccccc3)c2)[C@@H]1C(=O)NCCCc1ccccc1 [Compound 525]		
< 0.8	♯	CC(O)C1C(CO)ON(Cc2cccc(CN3Cc4ccccc4C3C(=O)N(C)C)c2)C1C(=O)NC1CC2CC(C1C)C2(C)C (stereo not drawn) [Compound 469]		
0.8 to 6	♯	C[C@H](O)[C@@H]1[C@H](CO)ON(Cc2cccc(CN(CCN(C)C)Cc3ccccc3)c2)[C@@H]1C(=O)NCCc1cccc(Br)c1 [Compound 514]		
< 0.8	♯	CCCC(CN(C)C)N(Cc1cccc(CN2OC(CO)C(C(C)O)C2C(=O)NC2CC3CC(C2C)C3(C)C)c1)Cc1ccccc1Cl (stereo not drawn) [Compound 438]		
6 to 50	♯	CC(C)C[C@@H](CN(C)C)N(Cc1ccccc1)Cc1cccc(CN2O[C@@H](CO)[C@@H]([C@H](C)O)[C@H]2C(=O)NCCCNC(=O)OC(C)(C)C)c1 [Compound 543]		
< 0.8	♯	CCN(CC)CCN(Cc1cccc(CN2OC(CO)C(C(C)O)C2C(=O)NC2CC3CC(C2C)C3(C)C)c1)CC1CCCCC1 (stereo not drawn) [Compound 419]		
